This is an account of results in paper PMC11117691, “Flipping the GPCR Switch: Structure-Based Development of Selective Cannabinoid Receptor 2 Inverse Agonists” (ACS Central Science, 2024).

The target of test [1] is T1, hCB2R (Homo sapiens, UniProt P34972). The class given is cell-based. Also on record: expressed in transfected cells; host or cells: HEK293TR cells, tetracycline-induced, live cells. The note with it: HEK293TR-CB2R-nLuc cells, representative of N = 3.
Protocol: HEPES. Following the wash, assay buffer containing 10 μM furimazine, 90 μL/well was added
to the wells. The plate was then incubated at 37 °C for 15 minutes to allow the nanoLuc substrate
furimazine to enter the cells. Three BRET cycles of 1-minute intervals were performed to assess
basal BRET levels, following which 10 μL of each compound, diluted in assay buffer was added
to the assay plate, which was read at 1-minute intervals for 30 minutes.
Buffer containing 10% DMSO (1% final) served as the vehicle control and
The assay buffer used to profile compounds in the CB 2R Gi-CASE system consisted of HBSS
containing 0.02% pluronic F127, 0.5% BSA and 5 mM HEPES. The reference compounds HU -
polypropylene plate. 0.5 µL of the reference and test compound serial dilutions was then added to
a white 384 well OptiplateTM (PerkinElmer) containing 39.5 μL of assay buff er. Finally, the CB 2R
membranes containing the G i-CASE biosensor were thawed and added into assay buffer containing
50 µM furimazine. Membranes (10 μL) were added to the assay plate at a final concentration of 5
µg/well. The total assay volume was 50 µL.
Test [2] addresses T1, hCB2R. The test can be described thus: cAMP HTRF assay in hCB2R-CHO cells. The class given is cell-based. Also on record: expressed in transfected cells. To be noted: for EC50: hCB2R-CHO cells, forskolin stimulated, mean N = 3. From the text:
One of the canonical signaling pathways of CB2R involves association with Gαi/o proteins, which elicit reversible inhibition of adenylyl cyclase resulting in a decrease of cellular cAMP levels and suppression of protein kinase A activity.[67] Consequently, we have investigated the change in cAMP levels upon probe addition using homogeneous time-resolved fluorescence (HTRF) cAMP assay (Table 3).
Homogeneous Time-Resolved Fluorescence (HTRF) cAMP assay
The homogeneous time-resolved fluorescence (HTRF) cAMP assay was conducted according to the manufacturer’s protocol for the cAMP-Gs Dynamic kit (Cisbio). Briefly, the CHO cell line stably overexpressing CB2R was maintained in Ham’s F12 supplemented with 10% FBS, penicillin (100 U/mL, Gibco-ThermoFisher), streptomycin (100 μg/mL, Gibco-ThermoFisher) and G418 (400 μg/mL, ThermoFisher). For CB2R compounds test, the cells were harvested with Cell Dissociation Buffer, resuspended in F-12 K at 0.4×10^6 cells/mL, and dispensed into 384-well low volume plates at 2000 cells/5 μL per well. The cells were stimulated with compounds diluted in Stimulation Buffer (2.5 μL/well) for 15 min at room temperature, followed by the addition of forsklin (2.5 μL 25 μM). After 15 mins incubation, reactions were stopped by 5 μL/well cAMP-d2 conjugate working solution followed by 5 μL/well of anti-cAMP cryptate working solution. After incubation for 1 h at room temperature, the plates were read in a PerkinElmer Envision reader for Time-Resolved Förster Resonance Energy Transfer (TR-FRET) at 620 nm and 665 nm.
β–arrestin recruitment assay
SNAP-tagged human CB2R HEK293-TR cells were maintained in a humidified environment at 37 °C and 5% CO2 in Dulbecco’s modified Eagle’s medium (DMEM) with 10% fetal bovine serum (FBS) containing blasticidin (5 µg/mL; Invitrogen) and (Zeocin; 20 µg/mL; Invitrogen). For receptor-inducible expression, cells were seeded into t175 cm2 flasks, grown to 70% confluence and DMEM containing 1 µg/ml tetracycline added.
HEK293TR-CB2R-nLuc cells expressing a fluorescently labelled β-arrestin protein were maintained in a humidified environment at 37 °C and 5% CO2 in Dulbecco’s modified Eagle’s medium (DMEM) with 10% fetal bovine serum (FBS) containing blasticidin (5 µg/mL; Invitrogen), Zeocin (20 µg/mL; Invitrogen) and G418 (0.2 mg/mL; Invitrogen) and used to assess compound stimulated β-arrestin recruitment to the human CB2R. Cultured cells were harvested upon reaching 70% confluency and plated at a seeding density of 50,000 cells per well. The cells were grown for 48 h until they reached confluency and then stimulated with 1 μg/mL tetracycline for a further 48 h to induce CB2R expression. Cell culture media was then aspirated from the wells and the cells were washed with assay buffer, 100 μL/well HBSS containing 0.5% BSA and 5 mM
A general note: In TR-FRET formats the signal depends on donor and acceptor labels being close together.

In test [3] the target is T1, hCB2R. In words: TR-FRET saturation binding assay at CB2R. Details: expressed in transfected cells; host or cells: HEK293-TR cells, tetracycline-induced; membrane preparations. The note with it: room temperature; for Kd: TR-FRET, HEK293 membranes of SNAP-Lumi4-Tb labeled hCB2R.
The target in test [4] is T1, hCB2R. In words: BRET Gi-CASE G protein recruitment membrane assay. The class given is biochemical. Also on record: expressed in transfected cells; host or cells: HEK293-TR cells, tetracycline-induced; membrane preparations. To be noted: for EC50: hCB2R-HEK293 T-REx membranes, mean N = 3–4, read-out: pEC50 (Gi-CASE G protein recruitment) (converted). For orientation: Bioluminescence resonance energy transfer reports proximity on the nanometre scale.

In test [5] the target is T1, hCB2R. In words: TR-FRET kinetic binding assay at CB2R. Also on record: expressed in transfected cells; host or cells: HEK293-TR cells, tetracycline-induced; membrane preparations. The note with it: for koff / kon / τ (receptor residence time) / Kd: hCB2R-HEK293 membranes, mean N = 3; for Kd: kinetic Kd.
The next test concerns rat CB2R. The test can be described thus: Live cell fluorescent Ca2+ imaging (Fluo-4AM) in AtT-20(rCB2R) cells. The class given is cell-based. To be noted: 20 μM, live AtT-20(rCB2R) cells; HU-308 added after (S)-3/(R)-3. The procedure:
Live AtT-20 cells overexpressing rat CB2R [AtT-20(rCB2R)] were treated with Fluo-4AM Ca^2+ dye and imaged by confocal microscopy (Figure 7). […] Ionomycin was added at the end of the experiment to saturate Ca^2+ levels.
Culture media (D10): Contains high glucose DMEM (450 mL, Gibco, #11965-092), FBS (50 mL, HyClone’s USDA tested, #SH30910), antibiotic Penicillin-strep (2.5 mL, Gibco, #15070).
Sterile filtered and aliquoted.
Culture media (D10) with hygromycin-B selection: Contains high glucose DMEM (450 mL, Gibco, #11965-092), FBS (50 mL, HyClone’s USDA tested, #SH30910), antibiotic Penicillin-strep (2.5 mL, Gibco, #15070). Sterile filtered and aliquoted. Selection maintained with Hygromycin-B (200 µg/mL, Thermo Fisher Scientific, #10687010).
Imaging buffer: Contains (in mM): 115 NaCl, 1.2 CaCl2, 1.2 MgCl2, 1.2 K2HPO4, 20 HEPES, 20 D-glucose. Adjusted to pH 7.4 with NaOH. Sterile filtered and aliquoted.
AtT-20 wild type (WT) and overexpressing rat CB2R cells (AtT-20(rCB2R)) were cultured in D10 culture media. […]
Fluorescence images were acquired with an Olympus Fluoview 1200 laser scanning confocal microscope using a 63× objective. […] For a direct comparison of the AtT-20(rCB2R) and wild type cells, one well of each genotype was labelled in parallel, and the identical settings on the confocal microscope were used between wells to accurately compare the dye fluorescence intensities.

Test [6] has as its system CB2R-mediated phosphorylation of endogenous ERK1/2. The test can be described thus: AlphaScreen SureFire phospho-ERK assay in CB2R inducible HCC1954 cells. The note with it: 1 μM, 30 min, versus vehicle. The class given is cell-based. The procedure: Activation of CB2R is associated with downstream stimulation of mitogen-activated protein kinases, such as ERK1/2, mediated via either Gβγ or β-arrestins.[70],[71] We have tested representative high-affinity fluorescent probe (R)-2 for CB2R-mediated phosphorylation of endogenous ERK1/2 in a CB2R inducible breast cancer HCC1954 cell line using the AlphaScreen SureFire phospho-ERK assay (Figure 6). […] (1 μM), or (R)-2 (1 μM) for 30 min. Following cell lysis, lysates were incubated with a mixture containing donor and acceptor beads for 2 h at room temperature and the luminescence emission signal was measured.
For ERK phosphorylation assay an inducible HCC1954 breast cancer cell line expressing CB2R […]
ERK1/2 phosphorylation was measured using AlphaScreen® SureFire® p‐ERK 1/2 assay kit according to manufacturer instructions (PerkinElmer) . Briefly, HCC1954 cells were seeded at a density of 100 000 cells/well in poly -D-lysine coated 96-well plates and incubated in absence or presence of 1 µg/ mL doxycycline for 24 h. On the next day prior to assay, cells were serum-starved for 2 h at 37°C. […] The plate was incubated for 2 h and ERK1/2 phosphorylation was measured on CLARIOstar® Plus Multimode Plate Reader (BMG Labtech, Germany), using a ratio of 620/570 nm. […]
Statistical significance was determined by one-way ANOVA followed by Tukey's post hoc test.

The mark [7] stands for this setting: normalized to agonist CP-55,940 response (100%) and basal level (0%).

T1 sequence (P34972 whole entry): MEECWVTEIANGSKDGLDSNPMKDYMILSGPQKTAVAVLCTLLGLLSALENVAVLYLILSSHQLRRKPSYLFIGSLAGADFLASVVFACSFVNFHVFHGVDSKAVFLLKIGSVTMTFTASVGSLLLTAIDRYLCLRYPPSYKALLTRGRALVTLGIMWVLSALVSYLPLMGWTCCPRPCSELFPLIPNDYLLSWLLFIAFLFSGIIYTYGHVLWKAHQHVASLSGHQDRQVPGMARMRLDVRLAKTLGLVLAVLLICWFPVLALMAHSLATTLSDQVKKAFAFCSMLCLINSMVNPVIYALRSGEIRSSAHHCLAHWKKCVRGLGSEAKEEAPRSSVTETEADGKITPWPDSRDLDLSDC

Consider `COc1cc(C(C)(C)C(CCCCCN=[N+]=[N-])c2ccccc2)cc(OC)c1C1C=C(CN)C2CC1C2(C)C` [(R)-1], for which the “β-arrestin recruitment (BRET signal)” value at hCB2R [1] is “Baseline BRET signal was retained”. At hCB2R [2], the EC50 was 112 nM. In addition, the “Emax (cAMP)” value on hCB2R [2] (setting [7]) is recorded as “–44%”. For the same molecule, at hCB2R [3], the affinity, expressed as Kd, was 39.1 nM. Further, the “fold greater binding affinity for CB2R in comparison to (S)-1” value on hCB2R [3] (ratio of Kd values) came to 12 fold. Moreover, at hCB2R [4], the EC50 is 158 nM. For the same molecule, on hCB2R [5] (37 °C), the koff was 13.9 10^–2 min^–1, the kon (usually a measure of how fast the partners come together) is 12.0 10^6 M^–1 min^–1, the “τ (receptor residence time)” value is recorded as 7.19 min and the Kd (usually the equilibrium constant for the complex coming apart) was 11.6 nM.
In the case of `COc1cc(C(C)(C)C(CCCCCN=[N+]=[N-])c2ccccc2)cc(OC)c1C1C=C(CN)C2CC1C2(C)C` [(S)-1], the “β-arrestin recruitment (BRET signal)” value at hCB2R [1] is “Baseline BRET signal was retained”. The molecule also had an EC50 at hCB2R [2] of 2690 nM. Also, the Emax (usually the maximal effect, on the per cent scale that the assay sets) on hCB2R [2] (setting [7]) was -44%. For the same molecule, at hCB2R [3], the dissociation constant (Kd) is 476 nM. Moreover, the “fold increased potency of G protein recruitment over adenylyl cyclase inhibition” value at hCB2R [4] (Gi-CASE pEC50 versus cAMP pEC50) amounted to 14 fold. In addition, the EC50 on hCB2R [4] is 191 nM. Moreover, on hCB2R [5] (37 °C), the koff is 115 10^–2 min^–1, the on-rate constant (kon) was 157000 M⁻¹ s⁻¹, the “τ (receptor residence time)” value was found to be 0.87 min and the Kd was determined as 122 nM.
`C#CCCC(=O)NCC1=CC(c2c(OC)cc(C(C)(C)C(CCCCCN=[N+]=[N-])c3ccccc3)cc2OC)C2CC1C2(C)C` [(S)-3/(R)-3]: the “intracellular Ca2+ (Fluo-4AM fluorescence)” value in the test on rat CB2R is recorded as “did not elicit increase in Fluo-4AM fluorescence”.
As for `C#CCCC(=O)NCC1=CC(c2c(OC)cc(C(C)(C)C(CCCCCN=[N+]=[N-])c3ccccc3)cc2OC)C2CC1C2(C)C` [(S)-3], the “β-arrestin recruitment (BRET signal)” value at hCB2R [1] was “Baseline BRET signal was retained”. In addition, the EC50 on hCB2R [2] was 40.7 nM. On hCB2R [2] (setting [7]), the “Emax (cAMP)” value was “–49%”. This molecule also returned a dissociation constant (Kd) at hCB2R [3] of 2.1 nM. Moreover, the EC50 on hCB2R [4] is 30.9 nM. For the same molecule, at hCB2R [5] (37 °C), the koff was 4.96 10^–2 min^–1, the kon was 44.3 10^6 M^–1 min^–1, the “τ (receptor residence time)” value was 20.2 min and the Kd was determined as 1.12 nM. Besides, the “ΔG (Experimental)” value at hCB2R [5] (ΔG exp = RT ln(Kd), T = 310 K, from experimental Kd values) is recorded as “–12.7 kcal mol-1”.
Take `CCCCCCC(C)(C)c1cc(OC)c([C@@H]2C=C(CO)[C@@H]3C[C@H]2C3(C)C)c(OC)c1` [HU-308, reference compound]: the “intracellular Ca2+ (Fluo-4AM fluorescence)” value with rat CB2R is “triggered a robust fluorescence spike”.
For `CCCC(C)(C)c1ccc2c(c1)OC(C)(C)[C@@H]1CC=C(C)C[C@@H]21` [JWH133], the figures for the ERK1/2 phosphorylation level result in test [6] (CB2R expression induced with DOX (1 μg/mL)) and in test [6] (absence of CB2R expression inducer (DOX)) were “effectively stimulated ERK1/2 phosphorylation” and “remained the same”, respectively.
For RO7568997 [reference compound], the “dissociation rate of fluorescent tracer” value on hCB2R [5] (tracer of competition-association assay, value fixed in fitting, 37 °C) was determined as 1.13 min⁻¹.
